Consider 1 compound from patent US11318141B2, “Methods and compositions related to STK1-targeted small molecules as antibiotic resistance breakers” (Ohio State Innovation Foundation, priority 2017, dated 2022).

One data set relates to S. aureus MW2-WT. Briefly: microbe, parasite or virus in culture. The format is cell-based, Staphylococcus aureus. To be noted: E-test, 50 μM Inh2-B1, 6 antibiotics.
The target of data set [1] is S. aureus STKK1 (the soluble kinase domain of STK1, 280 aa) (Staphylococcus aureus, UniProt A0ABF7PGK0). The data set is described as follows: In vitro kinase assay: inhibition of autophosphorylation of recombinant STKK1 (γ32P-ATP). The format is biochemical. To be noted: after 5 min pre-incubation. On the procedure: For the present study, recombinant His-tag-STKK1 was created along with part of the adjacent juxta-membrane domain (1-280 aa) using the pET14b vector system and specific primers (Table-1 and Table-2) as described previously. The recombinant proteins were expressed in BL21 DE3 (pLysS) and purified using Ni^+2-NTA-affinity chromatography, dialyzed against 10 mM Tris/HCl, pH 7.5, and stored as 10% glycerol stock (500 μg/ml) at −20° C. as described previously. In vitro kinase assays were performed using 2 μg STKK1 in the presence of 1 μCi γ^32P-ATP (specific activity 3000 Ci/mMol, PerkinElmer) at 30° C. for 45 min in a final volume of 30 μl phosphorylation buffer (50 mM Tris/HCl, pH7.5, 1 mM dithiothreitol, 5 mM MgCl2, and/or 5 mM MnCl2). The inhibition of autophosphorylation of STKK1 was carried out using this assay in the presence and absence of (50 μM) individual members of the 32 prescreened small molecule compound library. Phosphorylated proteins were separated by SDS-PAGE and subsequently identified by using Coomassie stain and autoradiography. The individual phosphorylated protein bands were then excised and subjected to radioactive counting using beta-scintillation counter for quantitative analysis. Experiments were repeated at least three times for statistical analysis.

Data set [2] has as its system Detroit 562 cells. The data set is described as follows: LDH release cytotoxicity assay. The format is cell-based, human. To be noted: 1.56-100 μM, 24 h. On the procedure: (§1) Various concentrations (1.56-100 μM) of the small molecule compounds Inh2-B1 were tested for their cytotoxicity by incubating them for 24 h in the cell lines mentioned above. The cytotoxicity of compounds was determined by measuring the activity of lactate dehydrogenase (LDH) released from the damaged cells during incubation. The LDH assay was performed in triplicate wells. At the end of incubation, the plates were lightly centrifuged, and the culture supernatants were examined for the presence of LDH activity using Cytotoxicity Detection Kit (Promega) per the manufacturer's instructions. LDH activity was detected spectrophotometrically (Molecular device, 490 nm) and normalized to the total LDH activity (100%) in cell lysate of the untreated cells. Background value obtained with untreated culture supernatant was subtracted before data evaluation.
In general terms: LDH leaks from cells whose membrane has failed.

Data set [3] concerns BEAS-2B cells. The data set is described as follows: LDH release cytotoxicity assay. To be noted: 1.56-100 μM, 24 h. Type of data set: cell-based, human. On the procedure:
as §1

A further data set concerns S. aureus MW2 wild-type. Briefly: Serial passage at suboptimal dose (10 generations), stk1 PCR and DNA sequencing. The format is cell-based, Staphylococcus aureus. To be noted: 25 μM Inh2-B1 alone or with 3 μM Ceftriaxone or 3 μM Cefotaxime, 10 generations. On the procedure:
Since the STK1 is not essential for bacterial survival and its absence results in retardation of growth, an end-point bactericidal assay was done, employing the Checkerboard titration method followed by a time-to-kill assay using the broth dilution method. The 96-well plate-based checkerboard titration assays were performed using the fixed number of CFUs of MW2 strain, and the survival of the bacteria was measured on solid agar plates as an end-point result. […] The cut-off value to designate clinical isolates of S. aureus for antibiotics, including Ceftriaxone (TX) and Cefotaxime (CT) as susceptible, is less than 4 μg/ml (i.e., <4.8 μM of TX, and <7 μM of CT). […] CFU counts of MW2-WT grown in the presence of various concentrations of Inh2-B1 were examined over a period of 16 h. […] Similarly, it was also determined CFU counts of MW2-WT and MW2ΔSTK1 strains each grown in the absence or the presence of 50 μM of Inh2-B1 and 1.5 μM Ceftriaxone (1 μg/ml) or […] Cefotaxime (1 μg/ml) for 16 h employing the broth dilution method. […] Further, to address whether MW2 or STK1 could become refractory to a potential combined therapy, the S. aureus MW2 wild-type strain was grown in the presence of suboptimal dose of Inh2-B1 alone and combination with Ceftriaxone and Cefotaxime (25 μM Inh2-B1 and 3 μM of Ceftriaxone or 3 μM Cefotaxime) for consecutive 10 generations.

The subject of data set [4] is S. aureus MW2ΔSTK1 biofilms. Briefly: Biofilm formation, crystal violet stain method. Type of data set: cell-based, Staphylococcus aureus. To be noted: 25 μM, further 48 h.
For data set [5], the system named is Detroit 562 cells. The data set is described as follows: MTT cell proliferation assay. Type of data set: cell-based, human. To be noted: even at 100 μM, 24 h. On the procedure:
(§2) Impact of Inh2-B1 on cell proliferation was determined by MTT (3-[4,5-dimethylthiazol-2-yl]-2,5 diphenyl tetrazolium bromide)-based assay using Roche Colorimetric proliferation assay kit. Cell lines mentioned above were grown in 96-well tissue culture plates in the CO2 incubator at 37° C. The cells were treated with Inh2-B1 as described above in a final volume of 100 μl for 24 h. At the end of incubation, tissue culture medium from each well was removed and replaced with fresh 100 μl of the medium containing MTT solution (0.5 mg/ml) and further incubated for 4 h. The purple color of formazan salt crystals formed in each well was solubilized with the addition of 100 μl of 10% SDS solution in 0.01M HCl and further incubating for 10-12 h. The solubilized formazan product in each well was spectrophotometrically analyzed using a microtiter plate reader (Molecular Devices, 570 nm). Absorbance values of wells containing MTT reagents without cells and the untreated cultured cells with MTT reagents were considered as the background and negative controls. All tests were performed in triplicate wells. The average background value obtained from 10 wells was subtracted from the test values, and the corrected values obtained from untreated and treated cells were statistically analyzed by Student's test. P<0.05 was treated as a significant difference.

The test system of data set [6] is BEAS-2B cells. The data set is described as follows: MTT cell proliferation assay. Type of data set: cell-based, human. Conditions: 24 h. On the procedure:
as §2

SMILES strings stand for the structures.

S. aureus STKK1 (the soluble kinase domain of STK1, 280 aa), sequence (A0ABF7PGK0 entry or part of it): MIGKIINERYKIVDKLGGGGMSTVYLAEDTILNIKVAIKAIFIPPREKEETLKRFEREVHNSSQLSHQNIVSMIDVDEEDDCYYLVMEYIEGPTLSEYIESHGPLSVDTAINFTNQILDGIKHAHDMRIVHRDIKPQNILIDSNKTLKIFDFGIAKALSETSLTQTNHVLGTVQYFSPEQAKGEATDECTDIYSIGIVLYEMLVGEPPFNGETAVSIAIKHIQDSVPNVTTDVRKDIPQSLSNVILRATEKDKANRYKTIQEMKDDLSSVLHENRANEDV

The term IC50 denotes the point on the concentration scale where inhibition reaches its midpoint. Take `COC(=O)c1ccc2c(=O)[nH]c3c(C(=O)Nc4ccccc4)sc(=S)n3c2c1` [Inh2-B1, Methyl 5-oxo-3-(phenylcarbamoyl)-1-thioxo-4,5dihydro[1,3]thiazolo[3,4-a]quinazoline-8-carboxylate]: in the data set with S. aureus MW2-WT, the “effect on susceptibility patterns of antibiotics other than cell wall acting ones” value is recorded as “did not change susceptibility patterns”. In addition, the IC50 in data set [1] was 49 µM. Also, the “lysis (LDH release)” value in the data set on Detroit 562 cells [2] is “less than 5%”. Further, the “cytotoxicity (LDH release)” value in the data set on BEAS-2B cells [3] is around 15%. In addition, the “changes in the stk1 gene of the passaged strain” value with S. aureus MW2 wild-type is “did not show any changes in the stk1 gene”. Further, the “effect on preformed biofilms” value in data set [4] is reported as “did not affect biofilms of MW2ΔSTK1”. Besides, in the data set on Detroit 562 cells [5], the “effect on cell proliferation (MTT)” value was “did not affect cell proliferation”. Also, the “cell proliferation inhibition (MTT)” value with BEAS-2B cells [6] (50 μM) is recorded as around 20%; in the data set with BEAS-2B cells [6] (100 μM) it was around 40%.
